pIC50: −log10 of the molar value. Counter-ions that a name gives are not always drawn.
How the values were obtained:
gap junctions = target: T1, gap junctions (Homo sapiens, UniProt P17302); assay: transport of calcein from outer shell to core of KGN spheroids (compartmentalization analysis); format: cell-based
T1 construct: endogenous in cells; host or cells: KGN human granulosa cell line, self-assembled 3D spheroids
Experimental: (§1) KGN cells, a human granulosa cell line, were grown in DMEM^29. OVCAR-3 and SK-OV-3 cells were grown in Roswell Park Memorial Institute medium (RPMI; Invitrogen). Both media were supplemented with 10% fetal bovine serum (FBS) (Thermo Fisher Scientific, Waltham, Mass.) and 1% penicillin/streptomycin and grown at 37° C. and 10% CO2. Cells were trypsinized using 0.05% trypsin and resuspended to the desired cell concentration. Spheroids that were pre-stained were formed from cells incubated with 5 μM CellTracker™ Red CMPTX, CellTracker™ Green CMFDA, or CellTracker™ Blue CMAC (Invitrogen) in serum-free DMEM for 1 hour prior to trypsinization. 75 μl of the cell suspension was pipetted into the seeding chamber of each gel. Cells were allowed to settle for 20 minutes and 4 mL of medium was added. Cells self-assembled for 24 hours to form spheroids before experimentation.
(§2) Quantitative image analysis was performed using a custom MATLAB (Mathworks, Natick, Mass.) program. Briefly, fifty evenly spaced radii were drawn across each spheroid and fluorescence at each pixel was averaged. […] Total spheroid fluorescence was determined by the integration of the fluorescent profiles (Equation 2). To compare data across experiments, we normalized the spheroids to the fluorescence per depth of single cells at the final time point.
(§3) To measure uptake of calcein-AM and transport of calcein, medium was removed from the hydrogels containing self-assembled KGN spheroids (24 hours), and replaced with serum-free DMEM containing 1 μM calcein-AM (Invitrogen). […] Images were taken once per hour for 11 hours, at 37° C. and 10% CO2.
(§4) Hydrogels were equilibrated with a drug-containing medium overnight at 37° C. and 10% CO2, and spheroids were self-assembled for 24 hours in their respective drug concentration. […] A working solution of carbenoxolone (Sigma) was prepared by diluting appropriate volumes of a 10 mM stock solution into serum-free medium. Spheroids were assembled for 24 hours and then pretreated with carbenoxolone for 5 hours prior to adding calcein-AM for the uptake assay. Medium containing drug and calcein-AM were used for the uptake assay.
To deconvolve this fluorescent signal into an average 3D radial profile, the spheroid was estimated as a series of concentric spheres (multi-layers). Each layer (shell) was 14 μm in width and contained a homogenous concentration of fluorescent calcein (FIGS. 3C and D). The total fluorescence f(i) at X, layer is sum of the fluorescence contribution from all shells at Xi. Mathematically, the total fluorescence can be written as
[formula] Here, fnorm(j) is the fluorescence/height in the i^th shell and h(i, j) is the height at point (Xi, Yj). Note h(i, i)=0 lies at the centerline of the spheroid. […] Equation (4) results in the following iterative formula: […]
The inner core was taken as about≧14 μm from the center in the smallest dimension to ensure the core contained whole cells.

Pgp [1] = target: T2, Pgp (Homo sapiens, UniProt P08183); conditions: 2D, calcein-AM assay, concentrations ranging from 1-100 μM; cited from earlier work
T2 sequence (P08183 whole entry): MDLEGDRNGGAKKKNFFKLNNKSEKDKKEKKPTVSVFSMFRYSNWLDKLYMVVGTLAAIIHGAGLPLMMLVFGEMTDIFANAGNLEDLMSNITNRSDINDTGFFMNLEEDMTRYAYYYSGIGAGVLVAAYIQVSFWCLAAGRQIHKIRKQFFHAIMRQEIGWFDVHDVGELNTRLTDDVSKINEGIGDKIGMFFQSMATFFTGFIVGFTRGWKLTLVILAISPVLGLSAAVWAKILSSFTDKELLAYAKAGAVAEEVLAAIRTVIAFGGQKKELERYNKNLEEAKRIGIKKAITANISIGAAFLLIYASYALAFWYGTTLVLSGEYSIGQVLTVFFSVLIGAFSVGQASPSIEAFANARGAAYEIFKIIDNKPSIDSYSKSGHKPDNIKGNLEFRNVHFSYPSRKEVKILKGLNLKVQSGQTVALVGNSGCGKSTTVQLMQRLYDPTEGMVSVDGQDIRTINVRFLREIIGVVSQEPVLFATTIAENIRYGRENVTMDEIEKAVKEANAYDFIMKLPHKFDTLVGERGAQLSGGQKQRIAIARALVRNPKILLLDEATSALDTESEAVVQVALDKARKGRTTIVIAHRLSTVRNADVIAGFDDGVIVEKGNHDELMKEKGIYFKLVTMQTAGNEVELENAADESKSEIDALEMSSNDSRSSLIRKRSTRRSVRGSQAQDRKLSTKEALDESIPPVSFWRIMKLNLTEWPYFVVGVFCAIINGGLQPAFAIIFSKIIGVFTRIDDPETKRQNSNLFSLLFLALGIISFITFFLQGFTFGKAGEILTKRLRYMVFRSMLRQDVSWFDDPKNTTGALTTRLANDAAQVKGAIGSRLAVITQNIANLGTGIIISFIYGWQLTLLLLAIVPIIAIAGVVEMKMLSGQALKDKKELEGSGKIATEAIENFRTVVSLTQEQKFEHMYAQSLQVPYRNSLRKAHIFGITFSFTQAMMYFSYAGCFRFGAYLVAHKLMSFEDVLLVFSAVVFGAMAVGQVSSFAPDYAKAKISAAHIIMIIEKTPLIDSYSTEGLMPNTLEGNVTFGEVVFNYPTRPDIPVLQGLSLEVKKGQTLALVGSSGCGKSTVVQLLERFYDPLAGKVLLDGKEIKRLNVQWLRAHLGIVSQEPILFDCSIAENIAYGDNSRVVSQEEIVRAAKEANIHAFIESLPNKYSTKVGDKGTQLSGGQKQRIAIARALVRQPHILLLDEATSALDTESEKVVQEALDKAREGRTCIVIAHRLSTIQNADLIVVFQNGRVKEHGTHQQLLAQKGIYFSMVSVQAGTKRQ

Pgp [2] = target: T2, Pgp; assay: cell-based
Experimental: as §1, §2, §3, §4

KGN spheroids = assay: loss of calcein from calcein-loaded KGN spheroids; format: cell-based, human; conditions: after 135 minutes calcein-AM loading
Experimental: To measure uptake of calcein-AM and transport of calcein, medium was removed from the hydrogels containing self-assembled KGN spheroids (24 hours), and replaced with serum-free DMEM containing 1 μM calcein-AM (Invitrogen). Fluorescent imaging of calcein began immediately and images were taken at regular intervals over 135 minutes at 37° C. and 10% CO2. To measure loss or loss of calcein, hydrogels containing KGN spheroids that had been incubated with calcein-AM for 135 minutes, thus loading the spheroids with calcein, were rinsed with DMEM and incubated in DMEM without calcein-AM. Images were taken once per hour for 11 hours, at 37° C. and 10% CO2.

[3] = 5 μM drug, 1 μM calcein-AM, 110 minutes
[4] = 5 μM drug, normalized data, 110 minutes
[5] = 1 μM calcein-AM, 75 minutes, n=15

T1 sequence (P17302 2-382 limits assumed): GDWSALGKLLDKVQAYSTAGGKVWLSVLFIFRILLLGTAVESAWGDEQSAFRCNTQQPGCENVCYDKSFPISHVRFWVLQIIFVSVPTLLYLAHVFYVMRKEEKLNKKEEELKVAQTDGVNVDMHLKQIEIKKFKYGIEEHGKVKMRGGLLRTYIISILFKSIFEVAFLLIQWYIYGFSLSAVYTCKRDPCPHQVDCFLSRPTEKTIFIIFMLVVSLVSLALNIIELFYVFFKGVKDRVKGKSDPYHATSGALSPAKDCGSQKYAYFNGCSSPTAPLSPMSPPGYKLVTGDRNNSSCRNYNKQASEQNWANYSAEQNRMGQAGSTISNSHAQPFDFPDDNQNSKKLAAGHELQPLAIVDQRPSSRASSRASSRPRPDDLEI

Row | SMILES | calcein concentration in the core of the spheroid compared to untreated (gap junctions; [3]) | percentage of calcein in the core compared to control (gap junctions; [4]) | percentage of calcein in the outer most shell compared to control (gap junctions; [4]) | percent maximum inhibition (Pgp [1]) [%] | calcein in the outer shell compared to untreated controls (Pgp [2]; [3]) | total concentration of calcein in the spheroids compared to untreated controls (Pgp [2]; [3]) | percentage of calcein in the core compared to controls (gap junctions; [5]) | percentage of calcein in the outer shell compared to controls (gap junctions; [5]) | pIC50 (gap junctions; 1 μM calcein-AM, 75 minutes, read-out: half-maximal response, inhibition of gap junctions (fraction of calcein compartmentalized to outer shell)) | calcein in the core, fold less than controls (gap junctions; CBX 100 μM, 1 μM calcein-AM, 135 minutes) [fold] | percentage of calcein in the core (gap junctions; CBX 100 μM, 135 minutes, n=18, untreated 15±3%) [%] | percentage of calcein in the outer shell (gap junctions; CBX 100 μM, 135 minutes, n=18, untreated 27±3%) [%] | pIC50 (Pgp [2]) | calcein in the outer shell, fold higher than controls (Pgp [2]; human, 135 min, 100 μM) [fold] | effect on loss of total spheroid calcein (KGN spheroids) | initial rate of calcein loss from the outer shell (KGN spheroids; drug-free medium, control 17±3% per hour, p<0.05) [% per hour]
1 | CN(C)C(=O)C(CCN1CCC(O)(c2ccc(Cl)cc2)CC1)(c1ccccc1)c1ccccc1 [loperamide, loperamide hydrochloride] | did not increase | decreased | increased | 76.3 | significantly increased | significantly increased | – | – | – | – | – | – | – | – | – | –
2 | CC1(C)[C@@H](OC(=O)CCC(=O)O)CC[C@]2(C)[C@H]3C(=O)C=C4[C@@H]5C[C@@](C)(C(=O)O)CC[C@]5(C)CC[C@@]4(C)[C@]3(C)CC[C@@H]12 [carbenoxolone] | – | – | – | – | – | – | reduced | increased | 5.03 | 8 | 0.5±2 | 52±4 | 4.09 | 3 | no effect | 13±1

From patent US9468680B2, “Differential effects of drugs on transport in a multi-layer 3D spheroid model” (Brown University, priority 2011, dated 2016)
